From patent US20170327559A1, “VIRAL INACTIVATION USING IMPROVED SOLVENT-DETERGENT METHOD” (Baxalta Incorporated, priority 2010, published 2017)
Values joined by “and” are separate entries in the source; they are usually repeats but may differ in a detail not shown here. Identical values can stand only once. Like-named read-outs stand apart in the source and are kept apart here.

Legend:
[1] = Temperature effects on solvent/detergent components before and after 0.2 μm filtration (HPLC); type: physicochemical
Experimental: In order to evaluate the influence of a lower temperature on the mixing time of solvent/detergent components, 50 mL solvent/detergent solutions were prepared by adding 0.3% (v/v) TNBP, 1.0% (v/v) polyoxyethylene octyl phenyl ether (TRITON® X-100) and 0.3% (v/v) polysorbate 80 sorbitan monooleate (TWEEN® 80) and stirring at 4±2° C. for 10, 20, or 30 minutes. As the solvent/detergent solution already contained 0.1% polysorbate 80 sorbitan monooleate (TWEEN® 80), the final concentration for this compound was of 0.4%. The concentration of TNBP and polyoxyethylene octyl phenyl ether (TRITON® X-100) were determined simultaneously by using C18 RP-HPLC with a refractive index detector (RID). The concentration of polysorbate 80 sorbitan monooleate (TWEEN® 80) was determined by C1 RP-HPLC using an evaporative light scattering detector (ELSD). For the HPLC analysis of TNBP and polyoxyethylene octyl phenyl ether (TRITON® X-100), an isocratic elution is employed using 68% methanol in water. In the assay of polysorbate 80 sorbitan monooleate (TWEEN® 80), a gradient elution from 60% methanol in water to 100% methanol is used.
To evaluate the impact of the temperature toward a potential retention of solvent/detergent conponents during the filtration step, 50 mL solvent/detergent solutions were prepared by adding 0.3% (v/v) TNBP, 1.0% (v/v) polyoxyethylene octyl phenyl ether (TRITON® X-100) and 0.3% (v/v) polysorbate 80 sorbitan monooleate (TWEEN® 80), stirring at 4±2° C. for 30 minutes and the concentration of each component was measured as described above. The solvent/detergent solutions were then processed under three different temperature conditions: 22.5° C. with a warm up period of about 8 hours; 22.5° C. with a warm up period of about 2 hours; and 4° C. without any warm-up or preheating step. At the end of the incubation period, samples were filtrated through a 0.2 μm filter and TNBP, polyoxyethylene octyl phenyl ether (TRITON® X-100) and polysorbate 80 sorbitan monooleate (TWEEN® 80) concentrations were measured by HPLC.

In the case of “polyoxyethylene octyl phenyl ether [TRITON X-100]”, the “S/D component concentration after 0.2 μm filtration” value [1] is reported as 1.00% and 0.90% and 1.10%, the “S/D component concentration after 0.2 μm filtration, Mean” value [1] is reported as 1.03% and 0.97% and 1.00% and the “S/D component concentration before 0.2 μm filtration” value [1] is reported as 0.80% and 1.00%. For the same substance, the “S/D component concentration before 0.2 μm filtration, Mean” value [1] was 1.00% and 0.93%, the S/D component concentration was 1.2% and 1.1% and the “S/D component concentration, Mean” value was 1.2 ± 0.06%.
With “polysorbate 80 sorbitan monooleate [Tween 80]” the “S/D component concentration after 0.2 μm filtration, Mean” value ([1]; 4° C./2 H, n = 3) was 0.41%, the “S/D component concentration before 0.2 μm filtration, Mean” value ([1]; 4° C./2 H, n = 3) was 0.40% and the “S/D component concentration after 0.2 μm filtration” value ([1]; 4° C./2 H, runs 1-3) was 0.40% and 0.41%. For the same substance, the “S/D component concentration before 0.2 μm filtration” value ([1]; 4° C./2 H, runs 1-3) was 0.38% and 0.40% and 0.42%, the “S/D component concentration after 0.2 μm filtration, Mean” value ([1]; 22.5° C./2 H, n = 3) was 0.41% and the “S/D component concentration before 0.2 μm filtration, Mean” value ([1]; 22.5° C./2 H, n = 3) was 0.41%. For the same substance, the “S/D component concentration after 0.2 μm filtration” value ([1]; 22.5° C./2 H, runs 1-3) was 0.38% and 0.44% and 0.41%, the “S/D component concentration before 0.2 μm filtration” value ([1]; 22.5° C./2 H, runs 1-3) was 0.41% and 0.42% and the “S/D component concentration after 0.2 μm filtration, Mean” value ([1]; 22.5° C./8 H, n = 3) was 0.39%. The “S/D component concentration before 0.2 μm filtration, Mean” value ([1]; 22.5° C./8 H, n = 3) was 0.38%, the “S/D component concentration after 0.2 μm filtration” value ([1]; 22.5° C./8 H, runs 1-3) was 0.40% and 0.39% and 0.37% and the “S/D component concentration before 0.2 μm filtration” value ([1]; 22.5° C./8 H, runs 1-3) was 0.33% and 0.39% and 0.42%. The “S/D component concentration, Mean” value (mean of 10, 20, 30 min stirring at 4±2° C.) was 0.42 ± 0.02%, the S/D component concentration (stirring at 4±2° C. for 10 min) was 0.42% and the S/D component concentration (stirring at 4±2° C. for 20 min) was 0.40%. For the same substance, the S/D component concentration (stirring at 4±2° C. for 30 min) was 0.44%.
